In patent US20260041640A1 (INCYCLIX BIO, LLC, priority 2023, published 2026):
Where two headings read alike, the source gives them in different places.

What was measured:
[1] = Toxicity and toxicokinetics studies, mouse; format: in vivo, mice
Description: Nominal dose values and sampling times were used for calculations. Any concentration reported as BLQ (LLOQ<1.0 ng/mL) was set equal to zero. Toxicokinetic analyses included Cmax, Tmax, AUC0-24, t1/2, RA Cmax, and RA AUC0-24.
Following this, human dose exposure was simulated using a combined whole blood and plasma compartment PK model using allometry and whole blood parameter estimates for the absorption rate constants and bioavailability per animal species. Absolute dose administration was used for modeling. V1, CL, V2, and Q parameters were extrapolated to human using allometric scaling. CL, Q by exponent equaled 0.818. V1, V2 by exponent equaled 1.03. Human body weight was set to 75 kg. Absorption rate constant (KA) was in reasonable ranges in mouse, rat, and dog, with values of 0.44, 0.53, and 0.18 (1/hr), respectively.

[2] = Non-Sink Dissolution Method (gastric to intestinal transfer); format: physicochemical
Description: The Gastric Media comprised 0.01 N HCl (pH 2.0) at a dose of 1500 μgA/mL. Timepoints tested were 10 min and 25 min following microcentrifugation of 100 μL aliquots diluted 5× in MeOH at 18,500 g. The Intestinal Media comprised 0.5 wt % SIF in Phosphate Buffer (pH 6.5) at a dose of 500 μgA/mL. Timepoints tested were 5 min, 30 min, 45 min, 70 min, 180 min, and 24 hr (post-transfer) following microcentrifugation of 100 μL aliquots diluted 5× in MeOH at 18,500 g. Timepoints tested were 5 min, 45 min, and 24 hr (post-transfer) following ultracentrifugation of 100 μL aliquots diluted 5× in MeOH at 470,000 g. The supernatants were assayed by HPLC.

[3] = system: recurrent advanced/metastatic cancer; test: First-in-human clinical study: preliminary antitumor activity; format: in vivo
Description: Cohort 1 enrollment of 6 subjects dosed at 100 mg oral QD was completed in October of 2023.

[4] = system: LU5202 [small cell lung cancer (SCLC)] patient-derived xenograft (PDX) model; format: in vivo
Description: 8-week-old NOD/SCID female mice (n=59) were split into two cohorts. A total of 29 mice were enrolled in cohort 1 of the study. A total of 30 mice were enrolled in […] of the study. When the average tumor volume reached 150-250 mm^3, all animals were randomly allocated to the 6 different study groups using Study Log software (Table 24). Animals were monitored weekly for palpable tumors, or any changes in appearance or behavior. Once tumors were palpable, tumors were measured at least once weekly using calipers. Body weight was measured at least 2 times per week following randomization and initiation of treatment.

[5] = system: ST4316B ER+, CDK4/6 inhibitor-resistant breast PDX model; test: ST4316B ER+, CDK4/6 inhibitor-resistant breast PDX model; format: in vivo, athymic nude mice
Description: Athymic nude, outbread homozygous (Crl:NU(NCr)-Foxnl^nu) 6-12-week-old ST4316B [HX] mice were analyzed. Tumor fragments from ST4316B were harvested from host animals and implanted into immune-deficient mice and the study initiated at a mean tumor volume of approximately 150-300 mm^3. […] Data collected from this study included animal weights, observations, and tumor dimensions. This information was used to determine agent tolerability based on weight change and gross physiologic changes; and anticancer activity based on tumor growth inhibition or regression. […]

[6] = Plasma protein binding, mouse; format: in vitro ADME
Text: Additionally, the whole blood-to-plasma ratio (KWB/P) in humans is 6.20, which also exceeds the other species tested (Table 7).

[7] = Cohort 1, 100 mg QD, 6 subjects

## NS(=O)(=O)c1ccc(Nc2ncc3cc4n(c3n2)C2(CCCCC2)C(=O)NN4)cc1 [INX-315]
[1]; model parameter estimate
  Absorption rate constant (KA): 0.44 h⁻¹
[1]; whole blood, po, read-out: Bioavailability (F1)
  bioavailability: 62%
[2]; microcentrifuged (total drug), 5 min
  Non-Sink Dissolution, Micro @ 5 min: 13
[2]; microcentrifuged (total drug), 60 min
  Non-Sink Dissolution, Micro @ 60 min: 12
[2]; microcentrifuged (total drug), 180 min
  Non-Sink Dissolution, Micro @ 180 min: 13
[2]; ultracentrifuged (dissolved drug), 5 min
  Non-Sink Dissolution, Ultra @ 5 min: 13
[2]; ultracentrifuged (dissolved drug), 60 min
  Non-Sink Dissolution, Ultra @ 60 min: 12
[2]; ultracentrifuged (dissolved drug), 180 min
  Non-Sink Dissolution, Ultra @ 180 min: 12
[3]; [7]
  partial response (PR) subjects: 1 subjects
  progressive disease (PD) subjects: 2 subjects
  stable disease (SD) subjects: 3 subjects
[3]; Subject 101-001 (ER+/HER2− breast cancer), 100 mg QD
  response: confirmed PR
[3]; Subject 201-001, end of Cycle 2, 100 mg QD
  decrease in TL: 10%
[4]; cohort 1, INX-315 100 mg/kg added to chemotherapy (cisplatin + etoposide)
  tumor growth inhibition: 70%
[4]; cohort 1, chemotherapy and INX-315
  body weight / tolerability: lost weight and did not tolerate the treatment well
[4]; cohort 1, monotherapy 100 mg/kg BID PO
  tumor growth inhibition: 62%
[4]; cohort 1, monotherapy 150 mg/kg BID PO
  tumor growth inhibition: 66%
[4]; cohort 2, INX-315 100 mg/kg added to chemotherapy
  tumor growth inhibition: 94%
[4]; cohort 2, monotherapy 100 mg/kg BID PO
  tumor growth inhibition: 70%
[4]; cohort 2, monotherapy 150 mg/kg BID PO
  tumor growth inhibition: 87%
[5]; Day 31, INX-315 100 mg/kg BID + ribociclib 50 mg/kg QD, p=0.0033
  tumor growth inhibition versus control: statistically significant tumor growth inhibition
[5]; Day 45, INX-315 100 mg/kg BID + ribociclib 50 mg/kg QD (Group 8), p<0.0002
  tumor growth inhibition percentage (TGI %): 65%
[6]
  fraction unbound: 0.023
